# Key:
# [1] = Stability in dark plastic or glass vials (light sensitivity); type: physicochemical
# Description: Accordingly, one of the ways to further improve or increase stability of SkQ liquid compositions during storage and transportation is to protect it from light.
# db/db mice = assay: Hepatic TBA-reactive substance content (MDA) in db/db diabetic mice; type: in vivo; conditions: SkQ1 in 20% glycerol, 250 nmol/kg per day orally for 12 weeks
# Protocol: SkQ1 in 20% glycerol, as described below in Example 8 (250 nmol/kg per day) was orally administered to 10 to 12 week old homozygous db/db mice (n=8), while vehicle db/db (n=8) and non-diabetic control heterozygous db/++ (n=5) mice for 12 weeks. The hepatic TBA-reactive substance content (MDA) was determined by assay according to the method of Mihara et al. ((1978) Anal. Biochem., 86:271-278).
# LPS-induced septic shock = assay: LPS/D-GalN-induced septic shock, survival; type: in vivo, BALB/c mice
# Protocol: Induction of the septic shock was performed as follows: 43 male BALB/c mice with free food and water access were divided onto 4 experimental groups. Group “K” got water without drugs. Groups “SkQ 50,” “SkQ 250,” and “SkQ 1250” were daily parenterally treated with pharmaceutical form of SkQ1 in water comprising 50 nmol/kg, 250 nmol/kg, and 1250 nmol/kg accordingly. After 3 weeks of SkQ1 treatment animals were intraperitonially injected with […] LPS and 700 mg/kg D-galactosamine (D-GalN) inducing septic shock leading to death of 50% of untreated control animals (LD50 dose). Death of animals were registered after 4 d of septic shock induction.
# [2] = Storage stability of oxidized SkQ1 formulations (Example 8); type: physicochemical
# Protocol: The stability of SkQ1 in the prepared solution was investigated by storage at RT and at 60° C. (Table 4).
# The stability of SkQ1 in the prepared solution was investigated by storage at 60° C. (Table 5).
# The stability of SkQ1 in the prepared composition was investigated by storage at 4° C. in darkness (Table 6).
# The stability of SkQ1 in the prepared composition was investigated by storage at 60° C. in darkness (Table 7).
# The stability of SkQ1 in the prepared composition was investigated by storage at RT in darkness (Table 8).
# The stability of SkQ1 in the prepared composition was investigated by storage at 60° C. in darkness (Table 9).
# The stability of SkQ1 in the prepared composition was investigated by storage at RT in darkness (Table 10).
# The stability of SkQ1 in the prepared composition was investigated by storage at 60° C. in darkness (Table 11).
# ICAM-1 mRNA = ICAM-1 mRNA level in aortas of old mice; type: in vivo; conditions: 24 months old C57Black/CBA mice; SkQ1 in drinking water for 7 months
# Protocol: As described above in Example 7A, above, the expression of ICAM-1 is elevated under many pathological vascular conditions. SkQ1 efficacy in reducing ICAM-1 expression in vivo was tested on mice. 30 hybrid male C57Black/CBA mice were divided into 3 experimental groups (10 animals in each group) at the beginning of the experiment. The group “Young mice” included mice at the age of 6 months. Groups “Old mice” and “Old mice, SkQ1” included mice at the age of 24 months. The group “Old mice, SkQ1” had free access to drinking water with 100 nM water-dissolved SkQ1 per 1 kg of body weight for 7 months. After this period, the animals were decapitated. Aortas were excised, and total RNA was isolated using […] Blood and Tissue kit (QIAGEN), reverse-transcribed into cDNA, and used for quantitative real-time PCR analysis of ICAM-1 mRNA level. For the normalization procedure the average geometry of expression levels of housekeeping genes GAPDH and RPL32 was used Data are shown as means±S.E.M.
# NFκB = NFκB activation caused by TNFα; type: cell-based
# Description: Additionally, SkQ1 decreases the phosphorylation and degradation of IkBa caused by TNFα. NFκB is known to be permanently active in many inflammatory diseases, such as inflammatory bowel disease, arthritis, sepsis, gastritis, asthma and atherosclerosis (Monaco et al. (2004) PNAS., 101:5634-9).
# [3] = system: collagen-induced arthritis; assay: Collagen-induced arthritis (CIA); type: in vivo, Wistar rats; conditions: SkQ1 in water 250 nmol/kg per day from day 14 or day 24 after collagen injection
# Protocol: Thirty Wistar rats with free food and water access were injected with complete Freund adjuvant and 250 mg type II collagen to induce CIA. Starting from 14 d and from 24 d after injection, two groups of 10 animals in each were daily fed with pharmaceutical form of SkQ1 in water comprising 250 nmol/kg body weight per day (groups “SkQ1 from day 14” and “SkQ1 from day 24”; Group “Control” received water without drugs).
structure (smiles),measurement,setting,value
CC1=C(C)C(=O)C(CCCCCCCCCC[P+](c2ccccc2)(c2ccccc2)c2ccccc2)=CC1=O [SkQ1],stability,[1],significantly increased
same,MDA levels in the liver,db/db mice,significantly lowered
same,survival of mice following LPS/D-GalN treatment,"LPS-induced septic shock; SkQ1 in water 50, 250, 1250 nmol/kg daily parenterally for 3 weeks, death registered after 4 d",significantly improved
same,"survival, significance of the effect","LPS-induced septic shock; dose of 50 nmol/kg, p=0.03",statistically significant effect
same,"SkQ1, %","[2]; SkQ1 1 mM in 20% glycerol, phosphate buffer pH 4.77, stored at 60° C., day 0",99.34%
same,"SkQ1, %","[2]; SkQ1 1 mM in 20% glycerol, phosphate buffer pH 4.77, stored at 60° C., day 19",95.30%
same,"SkQ1, %","[2]; SkQ1 1 mM in 20% glycerol, phosphate buffer pH 4.77, stored at RT, day 0",99.34%
same,"SkQ1, %","[2]; SkQ1 1 mM in 20% glycerol, phosphate buffer pH 4.77, stored at RT, day 11",99.71%
same,"SkQ1, %","[2]; SkQ1 1 mM in 20% glycerol, phosphate buffer pH 4.77, stored at RT, day 13",99.76%
same,"SkQ1, %","[2]; SkQ1 1 mM in 20% glycerol, phosphate buffer pH 4.77, stored at RT, day 14",99.68%
same,"SkQ1, %","[2]; SkQ1 1 mM in 20% glycerol, phosphate buffer pH 4.77, stored at RT, day 17",99.62%
same,"SkQ1, %","[2]; SkQ1 1 mM in 20% glycerol, phosphate buffer pH 4.77, stored at RT, day 19",99.63%
same,"SkQ1, %","[2]; SkQ1 1 mM in 20% glycerol, phosphate buffer pH 4.77, stored at RT, day 21",99.52%
same,"SkQ1, %","[2]; SkQ1 1 mM in 20% glycerol, phosphate buffer pH 4.77, stored at RT, day 24",99.57%
same,"SkQ1, %","[2]; SkQ1 1 mM in 20% glycerol, phosphate buffer pH 4.77, stored at RT, day 61",99.49%
same,"SkQ1, %","[2]; SkQ1 with PEG-4000, solid, 4° C. in darkness, day 18",>99.9%
same,"SkQ1, %","[2]; SkQ1 with PEG-4000, solid, 4° C. in darkness, day 19",99.83%
same,"SkQ1, %","[2]; SkQ1 with PEG-4000, solid, 4° C. in darkness, day 20",99.80%
same,"SkQ1, %","[2]; SkQ1 with dextran and p-ABA, solid, 60° C. in darkness, day 0",97.13%
same,"SkQ1, %","[2]; SkQ1 with dextran and p-ABA, solid, 60° C. in darkness, day 6",39.22%
same,"SkQ1, %","[2]; SkQ1 with dextran and p-ABA, solid, 60° C. in darkness, day 15",7.07%
same,"SkQ1, %","[2]; SkQ1 with dextran, solid, 60° C. in darkness, day 0",96.71%
same,"SkQ1, %","[2]; SkQ1 with dextran, solid, 60° C. in darkness, day 6",20.66%
same,"SkQ1, %","[2]; SkQ1 with dextran, solid, 60° C. in darkness, day 15",24.14%
same,"SkQ1, %","[2]; SkQ1 with dextran, solid, 60° C. in darkness, day 25",18.93%
same,"SkQ1, %","[2]; SkQ1 with myoinosite, solid, RT in darkness, day 0",95.88%
same,"SkQ1, %","[2]; SkQ1 with myoinosite, solid, RT in darkness, day 5",96.86%
same,"SkQ1, %","[2]; SkQ1 with myoinosite, solid, RT in darkness, day 6",95.99%
same,"SkQ1, %","[2]; SkQ1 with myoinosite, solid, RT in darkness, day 15",92.26%
same,"SkQ1, %","[2]; SkQ1 with p-aminobenzoic acid (p-ABA), solid, RT in darkness, day 0",100%
same,"SkQ1, %","[2]; SkQ1 with p-aminobenzoic acid (p-ABA), solid, RT in darkness, day 30",58.42%
same,"SkQ1, %","[2]; presumably SkQ1 in 50% 1,2-propylene glycol with lactic acid (10 eq), 60° C., day 0",>99.9%
same,"SkQ1, %","[2]; presumably SkQ1 in 50% 1,2-propylene glycol with lactic acid (10 eq), 60° C., day 72",96.6%
same,"SkQ1, %","[2]; presumably SkQ1 in 50% 1,2-propylene glycol with pyruvic acid (10 eq), 60° C., day 0",>99.9%
same,"SkQ1, %","[2]; presumably SkQ1 in 50% 1,2-propylene glycol with pyruvic acid (10 eq), 60° C., day 72",93.2%
same,ICAM-1 mRNA levels in aorta of treated old mice compared to the control group,ICAM-1 mRNA,significantly lowered
same,activation of NFκB,NFκB,prevent activation
same,phosphorylation and degradation of IkBa caused by TNFα,NFκB,decreases
same,translocation of transcription factor p65 (RelA) from the cytoplasm to the nucleus,NFκB,prevent translocation
same,number of animals with apparent inflammation (increased paw volumes),[3],reduced

# From patent US9572890B2, “Oral formulations of mitochondrially-targeted antioxidants and their preparation and use” (MITOTECH SA, priority 2011, dated 2017)
